Experiment [1] relates to P. falciparum stage V male gametocytes (male gamete formation). Put plainly: P. falciparum dual gamete formation assay (Pf DGFA), male readout (exflagellation), 48 h carry-over format. To be noted: primary screen, 2 uM, 48 h incubation, single replicate. Format: cell-based, Plasmodium falciparum NF54.
Experiment [2] relates to P. falciparum stage V female gametocytes (female gamete formation). Description: P. falciparum dual gamete formation assay (Pf DGFA), female readout (Pfs25 expression), 48 h carry-over format. To be noted: primary screen, 2 uM, 48 h incubation, single replicate. Type of experiment: cell-based, Plasmodium falciparum NF54.

We go through 55 compounds from paper PMC6143625, “A high throughput screen for next-generation leads targeting malaria parasite transmission” (Nature Communications, 2018).

SMILES strings stand for the structures. Some results are limits rather than exact numbers.

On to `CC(C)[C@H](NS(C)(=O)=O)C(=O)NCc1cc(-c2ccco2)n[nH]1` [DDD01235905], for which, in experiment [1], the “%Inhibition Male @2uM” value worked out at 31.18%. For the same compound, the “%Inhibition Female @2uM” value in experiment [2] is listed as less than 30%.
Take `CC(C)[C@H](NS(C)(=O)=O)C(=O)NCc1cc(-c2ccccc2)n[nH]1` [DDD01235932]: in experiment [1], the “%Inhibition Male @2uM” value is recorded as 32.71%. Moreover, the “%Inhibition Female @2uM” value in experiment [2] is on record as less than 30%.
As for `CC(C)(C)Nc1nc(-c2cccnc2)c(-c2ccnc(NCCO)n2)s1` [DDD01235967], the “%Inhibition Male @2uM” value in experiment [1] was 38.85%. Further, the “%Inhibition Female @2uM” value in experiment [2] was less than 30%.
The matching figures for `CCOCC(=O)N1CCC(c2nccn2Cc2cscn2)CC1` [DDD01243474]: 109.47% and less than 30%.
The matching figures for `O=C(O)CCc1cc2n(n1)CCCN(C(=O)c1ccc(F)cc1F)C2` [DDD01243729]: 76.28% and less than 30%.
For the compound `NCC1CCCN(c2nc(-c3ccccc3)nc3c2CCNCC3)C1` (centres unmarked) [DDD01244614], in experiment [1], the “%Inhibition Male @2uM” value came to 71.27%. Also, in experiment [2], the “%Inhibition Female @2uM” value is on record as 30.18%.
The like results for `Cn1nnnc1SCCNC(=O)C1CCN(C(=O)C2CC2)CC1` [DDD01244691] were, in that order, 73.04% and less than 30%.
Turning to `CCC(C(=O)N(C)C)N1CCC(c2nccn2Cc2cscn2)CC1` (centres unmarked) [DDD01244731], in experiment [1], the “%Inhibition Male @2uM” value was 126.32%. In experiment [2], the “%Inhibition Female @2uM” value is listed as less than 30%.
Turning to `CN(C)c1ccc(C(=O)N2CCCN(C3CCCCC3)CC2)cn1` [DDD01244855], the “%Inhibition Male @2uM” value in experiment [1] is listed as less than 30%. Besides, the “%Inhibition Female @2uM” value in experiment [2] is recorded as 30.12%.
In the case of `COC(=O)c1ccc(C(=O)N2CCCC(Nc3ccc(F)cc3)C2)cc1` (centres unmarked) [DDD01244904], the “%Inhibition Male @2uM” value in experiment [1] came out at 109.47%. For the same compound, the “%Inhibition Female @2uM” value in experiment [2] was less than 30%.
The matching figures for `CN(Cc1cnn(C)c1)c1nccc(-c2cc(C(=O)O)ccn2)n1` [DDD01245058]: less than 30% and 33.22%.
The matching figures for `Cc1nc[nH]c1CN1CCn2nc(CN3Cc4ccccc4C3)cc2C1` [DDD01245298]: 30.45% and less than 30%.
With `COc1cccc2c1OCC(C(=O)N1CCN(CCS(C)(=O)=O)CC1)C2` (centres unmarked) [DDD01245746], the “%Inhibition Male @2uM” value in experiment [1] came to 56.62%. In experiment [2], the “%Inhibition Female @2uM” value is given as less than 30%.
The like results for `CCNC(=O)[C@@H]1C[C@H](NC(=O)c2cncnc2C)CN1Cc1ccsc1` [DDD01245940] were, in that order, less than 30% and 96.27%.
The like results for `Cc1cccc(=O)n1CCCNc1nc(N(C)C)nc2c1CCNC2` [DDD01245962] were, in that order, 35.31% and less than 30%.
The like results for `CN(C)Cc1nnc(C2CCN(c3ncccc3Cl)CC2)n1C1CC1` [DDD01246077] were, in that order, 30.72% and less than 30%.
For the compound `COCCN(C)CCN1CC2(CCN(C3CCOC3)CC2)OC1=O` (centres unmarked) [DDD01246090], the “%Inhibition Male @2uM” value in experiment [1] was determined as 126.32%. Further, the “%Inhibition Female @2uM” value in experiment [2] is on record as less than 30%.
The matching figures for `COc1cccc2c1OCC(C(=O)N1Cc3ccccc3C1)C2` (centres unmarked) [DDD01246187]: 112.07% and less than 30%.
In the case of `O=C(c1ccccn1)N1C[C@H]2CC[C@@H](C1)N(C(=O)CCN1CCCC1)C2` [DDD01246765], in experiment [1], the “%Inhibition Male @2uM” value amounted to 99.89%. Moreover, in experiment [2], the “%Inhibition Female @2uM” value was less than 30%.
The like results for `CCc1ccc(CN(C)C(=O)C2CC(=O)N(c3cccc(O)c3)C2)nc1` (centres unmarked) [DDD01246796] were, in that order, 126.32% and less than 30%.
The like results for `C=C1C(C)(C)[C@@H]2CC[C@]1(C(=O)N1CCC(n3cc(CCO)nn3)CC1)C2` [DDD01246808] were, in that order, less than 30% and 30.26%.
Turning to `COCCN(C)CCN1CC2(CCN(C3CCSC3)CC2)OC1=O` (centres unmarked) [DDD01246844], the “%Inhibition Male @2uM” value in experiment [1] is on record as 176.84%. The “%Inhibition Female @2uM” value in experiment [2] is on record as less than 30%.
The matching figures for `Cc1cccc(C(=O)N2CCCC(c3nccn3Cc3cscn3)C2)n1` (centres unmarked) [DDD01247041]: 160.00% and less than 30%.
`Cc1ccccc1OCC(=O)N1CCOC2(CNCCOC2)C1` (centres unmarked) [DDD01247077]: the “%Inhibition Male @2uM” value in experiment [1] is given as 174.44%. Besides, the “%Inhibition Female @2uM” value in experiment [2] was less than 30%.
For `COc1cccc(Cn2c(C)c(C)oc2=O)c1OC` [DDD01247327], in experiment [1], the “%Inhibition Male @2uM” value was less than 30%. In addition, the “%Inhibition Female @2uM” value in experiment [2] is given as 30.45%.
As to `CN(C)CC(=O)NC1CC(C)(C)Cc2nc(C(C)(C)C)ncc21` (centres unmarked) [DDD01247509], the “%Inhibition Male @2uM” value in experiment [1] is given as less than 30%. For the same compound, the “%Inhibition Female @2uM” value in experiment [2] amounted to 43.65%.
The matching figures for `c1cc(CN2CCC(c3ccncc3)CC2)cc(Cn2cccn2)c1` [DDD01247553]: 75.89% and less than 30%.
In the case of `CCNC(=O)[C@@H]1C[C@H](N)CN1C(=O)C1(c2ccc(OC)cc2)CCCC1` [DDD01247775], the “%Inhibition Male @2uM” value in experiment [1] is given as less than 30%. Moreover, the “%Inhibition Female @2uM” value in experiment [2] is reported as 31.68%.
The like results for `Cc1ccc(CN(Cc2ccncc2)C2CCN(C)CC2)s1` [DDD01247850] were, in that order, less than 30% and 35.49%.
On to `CSc1nccc(N2CCC(=O)N(CC3CC3)C(C(C)C)C2)n1` (centres unmarked) [DDD01248006], for which the “%Inhibition Male @2uM” value in experiment [1] came out at 91.33%. In addition, the “%Inhibition Female @2uM” value in experiment [2] is given as less than 30%.
`CCn1c(C2CCCN(C(=O)c3ccc[nH]3)C2)nn(CCN(C)C)c1=O` (centres unmarked) [DDD01248239]: the “%Inhibition Male @2uM” value in experiment [1] is 83.64%. Moreover, the “%Inhibition Female @2uM” value in experiment [2] is listed as less than 30%.
As to `CCc1ccc(CN(C)Cc2cnc(S(=O)(=O)CC)n2CCOC)cc1` [DDD01248618], the “%Inhibition Male @2uM” value in experiment [1] turned out to be 143.16%. In addition, the “%Inhibition Female @2uM” value in experiment [2] is given as less than 30%.
The like results for `O=C(O)C1(Oc2ccccc2F)CCN(C/C=C/c2ccco2)CC1` [DDD01248641] were, in that order, less than 30% and 35.65%.
The matching figures for `CN(C)C(=O)NCc1cc2n(n1)CCCN(CC1CCCNC1)C2` (centres unmarked) [DDD01248722]: 166.37% and less than 30%.
As to `Cc1cccc2[nH]c(C3CCN(C(=O)c4ccc[nH]4)CC3)nc12` [DDD01248889], the “%Inhibition Male @2uM” value in experiment [1] was found to be 179.77%. For the same compound, the “%Inhibition Female @2uM” value in experiment [2] is recorded as less than 30%.
As for `Cc1nc2cc(OCc3nc(C(=O)NC(C)(CO)CO)co3)ccc2s1` [DDD01248928], in experiment [1], the “%Inhibition Male @2uM” value is given as 109.47%. Moreover, the “%Inhibition Female @2uM” value in experiment [2] is less than 30%.
On to `Cc1cccc(N2CCC(N3CCCC4(CNC(=O)O4)C3)CC2)c1C` (centres unmarked) [DDD01248972], for which the “%Inhibition Male @2uM” value in experiment [1] is reported as less than 30%. The “%Inhibition Female @2uM” value in experiment [2] was found to be 36.41%.
The matching figures for `CCCn1cc(C(=O)NC2CCC(n3cnnc3)CC2)c(C)n1` (centres unmarked) [DDD01249122]: 90.61% and less than 30%.
The matching figures for `COc1cccc2c1OCC(C(=O)N1CCSCC1)C2` (centres unmarked) [DDD01249304]: 51.06% and less than 30%.
In the case of `O=C(c1ccccc1)N1CCCC(Nc2ccc(F)cc2)C1` (centres unmarked) [DDD01249390], the “%Inhibition Male @2uM” value in experiment [1] is recorded as 180.87%. Also, the “%Inhibition Female @2uM” value in experiment [2] was less than 30%.
On to `Cc1noc(CN(C)C(=O)c2[nH]nc(N)c2-c2ccccc2)n1` [DDD01249532], for which, in experiment [1], the “%Inhibition Male @2uM” value is reported as less than 30%. Besides, in experiment [2], the “%Inhibition Female @2uM” value came to 61.65%.
With `Cc1nn(C)c2nc(N(C)CC3CCN(CC(C)C)C3)sc12` (centres unmarked) [DDD01249587], the “%Inhibition Male @2uM” value in experiment [1] is reported as less than 30%. Further, the “%Inhibition Female @2uM” value in experiment [2] is 47.43%.
The like results for `COc1cccc(OC2CN(C(=O)c3sccc3C)C2)c1` [DDD01250000] were, in that order, less than 30% and 64.75%.
Consider `CN1CCC(N(C)C[C@H]2CC[C@@H](Cc3ccc4occc4c3)O2)CC1` [DDD01250070], for which the “%Inhibition Male @2uM” value in experiment [1] is reported as less than 30%. In addition, the “%Inhibition Female @2uM” value in experiment [2] was determined as 33.03%.
Regarding `CCc1nn(C)c(Cl)c1CN1CCCC2(CC1)CN(C)C(=O)O2` (centres unmarked) [DDD01250081], the “%Inhibition Male @2uM” value in experiment [1] is less than 30%. The “%Inhibition Female @2uM” value in experiment [2] was found to be 32.84%.
The like results for `CN(C)Cc1nnc(C2CCN(c3ncccn3)CC2)n1C1CC1` [DDD01250187] were, in that order, 31.65% and less than 30%.
The like results for `CCc1ccccc1C(=O)N1C[C@@H](CN2CCOCC2)[C@@H](CO)C1` [DDD01250732] were, in that order, 143.16% and less than 30%.
`O=C(c1ccccn1)N1C[C@H]2CC[C@@H](C1)N(C(=O)CCC1CCCC1)C2` [DDD01250927]: the “%Inhibition Male @2uM” value in experiment [1] is recorded as 61.83%. Also, the “%Inhibition Female @2uM” value in experiment [2] is listed as less than 30%.
The matching figures for `O=C(c1ccccc1)N1C[C@H]2CC[C@@H](C1)N(Cc1cc(F)ccc1Cl)C2` [DDD01251068]: 176.84% and less than 30%.
Turning to `Cc1oc(-c2ccoc2)nc1CN1CCC[C@H]1CO` [DDD01251548], the “%Inhibition Male @2uM” value in experiment [1] was found to be 131.44%. Further, the “%Inhibition Female @2uM” value in experiment [2] is less than 30%.
The matching figures for `CN(C)c1nccnc1N1CC[C@@]2(O)CCNC[C@H]2C1` [DDD01251755]: less than 30% and 48.40%.
The matching figures for `COc1ccc(CN2CCC3(CCCNC3)C2)cc1Cn1cccn1` (centres unmarked) [DDD01251771]: 126.32% and less than 30%.
The matching figures for `CN(C)C(C(=O)N1CC(Oc2ccccc2F)C1)c1ccc(F)cc1` (centres unmarked) [DDD01251854]: less than 30% and 43.98%.
As for `Cc1ocnc1C(=O)N1CCC(c2nccn2Cc2ccncc2)CC1` [DDD01252089], the “%Inhibition Male @2uM” value in experiment [1] is reported as 78.03%. Also, in experiment [2], the “%Inhibition Female @2uM” value was less than 30%.
The like results for `CN(C)c1ccccc1C(=O)N1CCOC2(CNCCOC2)C1` (centres unmarked) [DDD01252114] were, in that order, 137.91% and less than 30%.
